Counter-ions that a name gives are not always drawn.
What was measured:
[1] = molecular target: T1, Progesterone receptor of rabbit's uterus (Oryctolagus cuniculus, UniProt P06186); assay: Relative bond affinity, progesterone receptor of rabbit's uterus (tritiated R 5020 displacement); assay type: binding; conditions: progesterone = 100
T1 construct: The uteruses were removed, weighed and homogenised at 0° C; from tissue; host or cells: uterus cytosol (105,000 g supernatant) of estradiol-primed impuberal female rabbits
T1 sequence (P06186 1-930): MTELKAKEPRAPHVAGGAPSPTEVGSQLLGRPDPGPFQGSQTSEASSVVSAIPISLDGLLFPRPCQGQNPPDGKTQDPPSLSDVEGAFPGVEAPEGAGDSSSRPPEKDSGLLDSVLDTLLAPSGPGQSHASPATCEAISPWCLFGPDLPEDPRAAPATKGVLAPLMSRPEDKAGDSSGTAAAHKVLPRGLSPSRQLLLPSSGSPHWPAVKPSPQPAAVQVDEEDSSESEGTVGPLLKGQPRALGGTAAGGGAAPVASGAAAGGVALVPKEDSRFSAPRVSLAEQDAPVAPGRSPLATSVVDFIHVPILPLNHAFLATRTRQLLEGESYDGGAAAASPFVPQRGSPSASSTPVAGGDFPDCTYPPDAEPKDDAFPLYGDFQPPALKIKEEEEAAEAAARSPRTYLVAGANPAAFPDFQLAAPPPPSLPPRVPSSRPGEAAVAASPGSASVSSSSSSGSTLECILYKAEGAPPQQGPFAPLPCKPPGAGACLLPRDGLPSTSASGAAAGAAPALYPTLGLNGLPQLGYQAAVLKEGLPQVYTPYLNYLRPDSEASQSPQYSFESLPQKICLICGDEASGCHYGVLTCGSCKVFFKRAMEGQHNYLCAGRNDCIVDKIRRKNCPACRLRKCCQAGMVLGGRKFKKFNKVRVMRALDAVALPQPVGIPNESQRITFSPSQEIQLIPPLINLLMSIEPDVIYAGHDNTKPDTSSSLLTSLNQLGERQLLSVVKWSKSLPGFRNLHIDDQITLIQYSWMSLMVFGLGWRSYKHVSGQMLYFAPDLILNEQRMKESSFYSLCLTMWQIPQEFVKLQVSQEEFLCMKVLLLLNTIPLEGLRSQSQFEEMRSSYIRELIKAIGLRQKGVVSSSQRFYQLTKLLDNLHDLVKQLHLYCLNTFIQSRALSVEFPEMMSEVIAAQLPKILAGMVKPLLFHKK
Method: Impuberal female rabbits weighing about 1 kg received a cutaneous application of 25 μg of estradiol and five days after this treatment, the animals were killed. The uteruses were removed, weighed and homogenised at 0° C. using a Potter teflon-flask ina (TS) 10 mM Tris, 0.25M saccharose, HCl pH 7.4 buffer (1 g of tissue per 50 ml of TS). The homogenate was ultra-centrifuged at 105,000 g×90 mn at 0° C. and aliquots of the supernatant or "cytosol", were incubated at 0° C. for 2 hours and 24 hours with a constant concentration (T=5 nm) of tritiated R 5020 (17,21-dimethyl-19-nor-Δ^4,9 -pregnadien-3, 20-dione, strongly progrestomimetic mimetic having a great affinity for the progesterone receptor), in the presence of increasing concentrations (0-2500 nM) of cold progesterone, or of the product under test. The concentration of bonded tritiated R 5020 (B) was measured in each incubate by the technique of adsorption with carbon-dextran. […]
(§1) The straight line of the equation: [formula] was determined. […]
(§2) The intersections of the straight line I50 and the curves allow the evaluation of the concentrations of the cold reference hormone (CH) and of the cold product under test (CX) which inhibit by 50% the bonding of the tritiated hormone on the receptor. The relative bond affinity (RBA) of the product under test was determined by the equation RBA=100 (CH)/(CX)

[2] = molecular target: T2, Glucocorticoid receptor of rat's thymus (Rattus norvegicus, UniProt P06536); assay: Relative bond affinity, glucocorticoid receptor of rat's thymus (tritiated dexamethasone displacement); assay type: binding; conditions: dexamethasone = 100
T2 construct: The thymuses were removed and homogenized at 0° C; from tissue; host or cells: thymus cytosol (105,000 g supernatant) of adrenalectomized male rats
T2 sequence (P06536 1-795): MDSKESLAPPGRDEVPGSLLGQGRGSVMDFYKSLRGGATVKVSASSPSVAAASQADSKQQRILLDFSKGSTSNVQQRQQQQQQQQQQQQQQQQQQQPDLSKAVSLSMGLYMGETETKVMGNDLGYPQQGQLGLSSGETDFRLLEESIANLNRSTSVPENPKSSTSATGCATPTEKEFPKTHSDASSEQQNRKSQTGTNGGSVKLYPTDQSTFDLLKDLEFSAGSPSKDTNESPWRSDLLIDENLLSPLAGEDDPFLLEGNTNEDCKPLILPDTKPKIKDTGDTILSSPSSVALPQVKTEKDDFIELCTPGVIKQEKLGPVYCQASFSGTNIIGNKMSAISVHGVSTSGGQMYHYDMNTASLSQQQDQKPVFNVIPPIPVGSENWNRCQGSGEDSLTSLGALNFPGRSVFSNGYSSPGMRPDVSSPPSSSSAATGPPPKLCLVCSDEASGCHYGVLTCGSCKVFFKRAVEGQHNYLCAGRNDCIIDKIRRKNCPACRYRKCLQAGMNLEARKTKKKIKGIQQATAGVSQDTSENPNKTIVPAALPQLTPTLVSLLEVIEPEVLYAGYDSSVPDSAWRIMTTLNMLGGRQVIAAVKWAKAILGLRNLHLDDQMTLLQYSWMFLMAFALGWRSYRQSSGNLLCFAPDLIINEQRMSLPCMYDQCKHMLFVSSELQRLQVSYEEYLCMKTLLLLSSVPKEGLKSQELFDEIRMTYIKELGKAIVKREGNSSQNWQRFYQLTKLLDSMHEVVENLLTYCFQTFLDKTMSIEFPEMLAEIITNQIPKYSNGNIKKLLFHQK
Method: Male rats weighing 160 to 200 g were suprarenalectomized and 4 to 8 days after this removal, the animals were killed. The thymuses were removed and homogenized at 0° C. using a Potter teflon-flask in a (TSD) 10 mM Tris, 0.25M saccharose, 2mM dithiothreitol, HCl, pH 7.4 buffer (1 g of tissue per 10 ml of TSD). The homogenate was ultracentrifuged at 105,000 g×90 mn at 0° C. and aliquots of the supernatant or "cystosol" were incubated at 0° C. for 4 hours and 24 hours with constant concentration (T=2.5 nM) of tritiated dexamethasone in the presence of increasing concentrations (0-2,500 nM) of cold dexamethasone or of the cold product under test. The concentration of the bonded tritiated dexamethasone (B) was then measured in each incubate by the technique of adsorption with carbon-dextran.
(§3) The calculation of the relative bond affinity (RBA) was identical for all receptors. […]
as §1, §2

[3] = molecular target: T3, Androgen receptor of rat's prostate (Rattus norvegicus, UniProt P15207); assay: Relative bond affinity, androgen receptor of rat's prostate (tritiated testosterone displacement); assay type: binding; conditions: testosterone = 100
T3 construct: The prostates were removed, weighed and homogenized at 0° C; from tissue; host or cells: prostate cytosol (105,000 g supernatant) of castrated male rats
T3 sequence (P15207 1-902): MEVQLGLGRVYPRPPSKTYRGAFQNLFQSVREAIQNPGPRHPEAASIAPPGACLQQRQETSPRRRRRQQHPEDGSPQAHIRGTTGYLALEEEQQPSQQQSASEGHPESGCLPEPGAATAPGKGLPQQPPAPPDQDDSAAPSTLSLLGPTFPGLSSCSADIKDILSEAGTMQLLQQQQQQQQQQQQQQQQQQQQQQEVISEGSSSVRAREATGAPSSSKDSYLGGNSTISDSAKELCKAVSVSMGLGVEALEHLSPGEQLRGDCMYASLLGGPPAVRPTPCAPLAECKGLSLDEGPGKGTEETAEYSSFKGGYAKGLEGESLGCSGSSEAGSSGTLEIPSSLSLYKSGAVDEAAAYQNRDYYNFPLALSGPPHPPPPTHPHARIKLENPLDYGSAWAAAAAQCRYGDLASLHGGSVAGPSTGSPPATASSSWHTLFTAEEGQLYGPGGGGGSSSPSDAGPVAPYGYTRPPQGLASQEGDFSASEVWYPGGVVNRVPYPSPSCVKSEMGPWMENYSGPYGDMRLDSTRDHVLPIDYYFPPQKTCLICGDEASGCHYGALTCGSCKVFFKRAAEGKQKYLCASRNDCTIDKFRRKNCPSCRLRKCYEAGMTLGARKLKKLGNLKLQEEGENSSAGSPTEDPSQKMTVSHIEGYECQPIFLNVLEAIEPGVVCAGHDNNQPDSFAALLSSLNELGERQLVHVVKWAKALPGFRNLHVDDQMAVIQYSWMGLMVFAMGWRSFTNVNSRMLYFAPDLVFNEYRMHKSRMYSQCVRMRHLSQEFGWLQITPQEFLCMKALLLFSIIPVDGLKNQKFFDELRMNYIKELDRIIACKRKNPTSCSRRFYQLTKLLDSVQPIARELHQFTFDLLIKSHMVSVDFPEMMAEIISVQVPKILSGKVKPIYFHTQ
Method: Male rats weighing of 160 to 200 g were castrated and 24 hours after the castration, the animals were killed. The prostates were removed, weighed and homogenized at 0° C. using a Potter Teflon-flask in a (TSDPM) 10 mM Tris, 0.25 M saccharose, 0.1 mM phenyl methane sulfonyl fluoride, 20 mM molybdate, 2mM dithiothreitol, HCl pH 7.4 buffer (1 g of tissue per 5 ml of TSDPM). The homogenate was ultracentrifuged at 105,000 g×60 mn at 0° C. and aliquots of the supernatant or "cytosol" were incubated at 0° C. with a constant concentration of tritiated testosterone in the presence of increasing concentrations (0-1000 nM) of cold testosterone or of the product under test. […]
as §3, §1, §2

[4] = system: rat thymocytes; assay: Anti-glucocorticoid activity vis-a-vis dexamethasone: incorporation of uridine in rat thymocytes; assay type: cell-based
From the text: Glucocorticoids cause an inhibition of the incorporation of nucleosides in lymphoid tissue and the measurement of the incorporation of radio-active uridine in the thymocytes in the presence of a product under test allows its glucocorticoid activity to be evaluated.
In accordance with the technique described by Dausse et al (3), the thymus of a suprarenalectomized rat weighing 160 to 180 g was removed, shredded and homogenized slowly using a teflon-flask homogenizer in Hanks solution. The cellular suspension was filtered on gauze, then centrifuged at 800 g×10 mn. A new centrifugation was carried out at 800 g×10 mm and the deposit was suspended in a nutritive medium (M.E.M. Gibco). The cellular concentration was adjusted to approximately 20×10^6 cells per ml and aliquots of 250 μl were incubated under carbogen for 3 hours at 37° C. with 5×10^-8 M of dexamethasone in the presence or not of increasing concentrations of product (10^-8 to 10^-6 M). 0.1 uCi of tritiated uridine was added to each incubate and the incubation was continued for one hour. The incubates were cooled and 1 ml of a cold solution of trichloroacetic acid (TCA) at 5% weight/volume was added. […] The radioactivity retained on the filters (representing the tritiated uridine incorporated in the thymocytes) was measured using a liquid scintillation spectrometer.

- relative bond affinity (RBA) Progesterone 2H ([1]; incubation 2 hours at 0° C.): 22
- relative bond affinity (RBA) Progesterone 24H ([1]; incubation 24 hours at 0° C.): 107
- relative bond affinity (RBA) Glucocorticoid 4H ([2]; incubation 4 hours at 0° C.): 101
- relative bond affinity (RBA) Glucocorticoid 24H ([2]; incubation 24 hours at 0° C.): 129
- relative bond affinity (RBA) Androgen ([3]; incubation (so in the source) at 0° C.): 10,1
- relative bond affinity (RBA) Androgen 0,5H ([3]; incubation half an hour at 0° C.): 2,1
SMILES: CC#C[C@]1(O)CC[C@H]2[C@@H]3CCC4=CC(=O)CCC4=C3[C@@H](c3ccc(N(C)CC(=O)O)cc3)C[C@@]21C [Example 1, Sodium salt of [[4-[17α-(1-propynyl)-Δ^4,9-estradien-17β-ol-3-one-11 β-yl]-phenyl]-methylamino]-acetic acid]
- anti-glucocorticoid activity (statement in words) [4]: good anti-glucocorticoid activity
